For ten compounds, IC50, MIC and response vs control in vivo results are on record in patent publication US4555572A, “Pyrazolo[3,4,5-kl]acridine compositions and methods for their production and use” (Warner-Lambert Company, priority 1984, dated 1985).

Structures can show the parent of a compound that is named as a salt. Where two headings read alike, the source gives them in different places. Some results are limits rather than exact numbers.

In one assay the test system is HCT-8 cells. Nature of the assay: in vitro proliferating human colon adenocarcinoma (HCA) cell screen, HCT-8. The assay is classed as cell-based. The method, then:
(a) One test protocol is the in vitro proliferating human colon adenocarcinoma (HCA) cell screen. In this test, HCT-8 cells (HCA cell line received from Yale University) are trypsinized using trypsin-EDTA. A single cell suspension is achieved by passing the cells through a 26 gauge needle with a 20-cc syringe. A cell suspension is prepared using RPMI 1640+10% FCS+50 μg/ml gentamicin sulfate with a cell concentration is approximately 30,000 cells/ml. The cell suspension is dispensed in Linbro 24-well plates; 1 ml/well. The plates are incubated for approximately 48 hours at 37° C. in a 5% CO2 atmosphere. At this time test compounds are added in the appropriate concentration. Five μl of the 200 μg/ml stock solution is added to each well in a primary test. […] of the appropriate dilution is added to each well for a titration test. The plates are reincubated an additional 60 to 65 hours at 37° C. in a 5% CO 2 atmosphere. The cells are lysed using a mix of cationic surfactant, glacial acetic acid, and sodium chloride. Two ml of the lysed cell suspension from each well is added to 8 ml of diluent. The number of nuclei is determined using a Coulter counter (ZBI model), and a percent growth for each drug concentration is calculated. From this, and ID50 (molar concentration of compound that results in 50% inhibition of growth) is determined.

In the next assay the test system is Escherichia coli. Nature of the assay: in vitro antibacterial (ABMF) microdilution susceptibility test. The settings on record: read-out: ABMF Test M.I.C. E. coli. The assay is classed as cell-based. From the text:
(§1) (d) Still another test protocol is the in vitro antibacterial (ABMF) test which is a recognized standard microdilution susceptibility procedure in Mueller-Hinton broth against gram-positive and gram-negative bacterial test organisms. The procedure is a modification of a state-of-the-art procedure reported in Manual of Clinical Microbiology, Lennette, E. H., ed., by Barry, A. L. and C. Thornsberry at pages 463-474 and by Gavan, T. L. and A. L. Barry at pages 459-462, American Society for Microbiology, Washington, 1980.
(§2) In the test, a given bacterial culture is used to inoculate individaul test wells of microdilution trays containing growth medium and test compound, the latter in a microdilution series: 1000, 333, 111, 37, 12, 4, 1.4, and 0.46 micrograms per milliliter. […] For convenience, values are reported for Escherichia coli, Branhamella catarrhalis, Alcaligenes viscolactis, Streptococcus pneumoniae, and Bacillus cereus
(In general: In broth dilution the organism is exposed to a series of concentrations in liquid medium.)

Another assay concerns Alcaligenes viscolactis. The description is as above. The settings on record: read-out: ABMF Test M.I.C. A. visc. It is filed as cell-based.
From the text: as §1, §2

In another assay the test system is Streptococcus pneumoniae. The description is as above. The assay is classed as cell-based. The settings on record: read-out: ABMF Test M.I.C. S. pneu.
From the text: as §1, §2

The test system of the next assay is Branhamella catarrhalis. The description is as above. It is filed as cell-based. The settings on record: Moraxella catarrhalis, read-out: ABMF Test M.I.C. B. cata.
From the text: as §1, §2

The next assay has as its system Bacillus cereus. Described as above. It is filed as cell-based. Conditions: read-out: ABMF Test M.I.C. B. cere.
From the text: as §1, §2

Assay [1] concerns lymphocytic leukemia P388. Nature of the assay: in vivo lymphocytic leukemia P388 test. Also noted: species or system CD2 F1 mice. The settings on record: Mus musculus, P388, ip, 120 h. The method, then:
Another test protocol is the in vivo lymphocytic leukemia P388 test. The animals used are either male or female CD2 F1 mice, six or seven animals per test group. The tumor transplant is by intraperitoneal injection of dilute ascitic fluid containing cells of lymphocytic leukemia P388. The test compounds are administered intraperitoneally once daily for five consecutive days at various doses following tumor inoculation. The animals are weighed and survivors are recorded on a regular basis for 30 days. A compound is designated "toxic" if, at a given dose, all animals died prior to four days after the first injection of drug. A ratio of survival time for treated (T)/control (C) animals is calculated. A criterion for efficacy is a ratio T/C times 100 greater than or equal to 125. See Cancer Chemotherapy Reports, Part 3, 3, 1 (1972) for a comprehensive discussion of the protocol.

The mark [2] stands for this setting: HCT-8 cells, 60 to 65 hours, ED50, read-out: HCA ED50 Avg.
Where [3] appears, read: Mueller-Hinton broth, 37° C., 16-24 hours.
Setting [4] is: 6.25 mg/kg, intraperitoneally once daily for five days, read-out: P388 in vivo T/C × 100.
Where [5] appears, read: intraperitoneally once daily for five days, read-out: P388 in vivo T/C × 100.

Take `CCOc1ccc2c(c1)-c1nn(CCN(CC)CC)c3ccc([N+](=O)[O-])c(c13)N2.CS(=O)(=O)O` [Example 18, N,N-Diethyl-9-ethoxy-5-nitropyrazolo[3,4,5-kl]acridine-2(6H)-ethanamine, methanesulfonate (1:1)]: in the assay on HCT-8 cells (setting [2]), the IC50 was 110 nM. The MIC with Escherichia coli (setting [3]) was 12.3 µg/mL; with Alcaligenes viscolactis (setting [3]) it was below 0.46 µg/mL; in the assay with Streptococcus pneumoniae (setting [3]), below 0.46 µg/mL; in the assay with Branhamella catarrhalis (setting [3]), 1.4 µg/mL; with Bacillus cereus (setting [3]), 12.3 µg/mL. In assay [1] (3.13 mg/kg, intraperitoneally once daily for five days, read-out: P388 in vivo T/C × 100), the response vs control in vivo at 3.13 mg/kg came to 135%. Besides, the response vs control in vivo at 6.25 mg/kg in assay [1] (setting [4]) stood at 169%. For the same compound, in assay [1] (setting [5]), the response vs control in vivo at 12.5 mg/kg amounted to 201%.

As for `COc1cc(OC)c2c(c1)-c1nn(CCN(C)C)c3ccc([N+](=O)[O-])c(c13)N2.CS(=O)(=O)O` [Example 38, 7,9-Dimethoxy-N,N-dimethyl-5-nitropyrazolo[3,4,5-kl]acridine-2(6H)-ethanamine, methanesulfonate (1:1)], the IC50 in the assay with HCT-8 cells (setting [2]) was 64 nM. The MIC in the assay on Escherichia coli (setting [3]) was 1000 µg/mL; with Alcaligenes viscolactis (setting [3]), below 0.46 µg/mL; with Streptococcus pneumoniae (setting [3]), below 0.46 µg/mL; in the assay with Branhamella catarrhalis (setting [3]) it was 1.4 µg/mL; in the assay on Bacillus cereus (setting [3]), below 0.46 µg/mL. The response vs control in vivo at 100 mg/kg in assay [1] (100 mg/kg, intraperitoneally once daily for five days, read-out: P388 in vivo T/C × 100) was determined as 119%. Further, the response vs control in vivo at 200 mg/kg in assay [1] (200 mg/kg, intraperitoneally once daily for five days, read-out: P388 in vivo T/C × 100) amounted to 128%.

On to `CCN(CC)CCn1nc2c3c(c([N+](=O)[O-])ccc31)Nc1ccc(O[Si](C)(C)C(C)(C)C)cc1-2` [Example 26, 9-[[(1,1-Dimethylethyl)dimethylsilyl]oxy]-N,N-diethyl-5-nitropyrazolo[3,4,5-kl]acridine-2(6H)-ethanamine, methanesulfonate (salt) (1:1)], for which the IC50 with HCT-8 cells (HCT-8, read-out: HCA ED50 Avg.) was found to be 6.4 nM. For the same compound, the MIC with Escherichia coli was above 1000 µg/mL; in the assay with Alcaligenes viscolactis, 37 µg/mL; in the assay on Streptococcus pneumoniae, above 1000 µg/mL; with Branhamella catarrhalis it was above 1000 µg/mL; in the assay on Bacillus cereus, above 1000 µg/mL. In assay [1] (read-out: P388 in vivo T/C × 100, 1.56 mg/kg, intraperitoneally once daily for five days), the response vs control in vivo at 1.56 mg/kg was 154%. For the same compound, in assay [1] (read-out: P388 in vivo T/C × 100, 3.12 mg/kg, intraperitoneally once daily for five days), the response vs control in vivo at 3.12 mg/kg turned out to be 158%. For the same compound, the response vs control in vivo at 6.25 mg/kg in assay [1] (read-out: P388 in vivo T/C × 100, 6.25 mg/kg, intraperitoneally once daily for five days) is 211%.

`CCCCOc1ccc2c(c1)-c1nn(CCN(CC)CC)c3ccc([N+](=O)[O-])c(c13)N2` [Example 20, 9-Butoxy-N,N-diethyl-5-nitropyrazolo[3,4,5-kl]acridine-2(6H)-ethanamine, methanesulfonate]: the IC50 with HCT-8 cells (setting [2]) was 73 nM. Moreover, the response vs control in vivo at 1.56 mg/kg in assay [1] (1.56 mg/kg, intraperitoneally once daily for five days, read-out: P388 in vivo T/C × 100) was 124%. For the same compound, the response vs control in vivo at 3.12 mg/kg in assay [1] (3.12 mg/kg, intraperitoneally once daily for five days, read-out: P388 in vivo T/C × 100) worked out at 125%. The response vs control in vivo at 6.25 mg/kg in assay [1] (setting [4]) was 160%.

With `CCCC(=O)Oc1ccc2c(c1)-c1nn(CCN(CC)CC)c3ccc([N+](=O)[O-])c(c13)N2` [Example 29, [2-[2-(Diethylamino)ethyl]-2,6-dihydro-5-nitropyrazolo[3,4,5-kl]acridin-9-yl]butanoic ester, methanesulfonate (salt) (1:1)], the MIC was 333 µg/mL with Escherichia coli (setting [3]); below 0.46 µg/mL in the assay with Alcaligenes viscolactis (setting [3]); below 0.46 µg/mL in the assay on Streptococcus pneumoniae (setting [3]); 1.4 µg/mL in the assay with Branhamella catarrhalis (setting [3]); 4.1 µg/mL with Bacillus cereus (setting [3]). In addition, the response vs control in vivo at 6.25 mg/kg in assay [1] (setting [4]) turned out to be 252%.

On to `CCN(CC)CCn1nc2c3c(c([N+](=O)[O-])ccc31)Nc1c(OC)cc(OC)cc1-2` [Example 23, N,N-Diethyl-7,9-dimethoxy-5-nitropyrazolo[3,4,5-kl]acridine-2(6H)-ethanamine, methanesulfonate, hydrate (1:1)], for which, in the assay with HCT-8 cells (setting [2]), the IC50 was 490 nM. Also, the MIC is 37 µg/mL in the assay on Escherichia coli (setting [3]); below 0.46 µg/mL with Alcaligenes viscolactis (setting [3]); below 0.46 µg/mL with Streptococcus pneumoniae (setting [3]); 1.4 µg/mL in the assay on Branhamella catarrhalis (setting [3]); below 0.46 µg/mL with Bacillus cereus (setting [3]).

As for `CCN(CC)CCn1nc2c3c(c([N+](=O)[O-])ccc31)Nc1ccc(C)cc1-2` [Example 34, N,N-Diethyl-9-methyl-5-nitropyrazolo[3,4,5-kl]acridine-2(6H)-ethanamine, methanesulfonate (salt) (1:1)], the IC50 with HCT-8 cells (setting [2]) was 790 nM. The MIC in the assay with Escherichia coli (setting [3]) was 12.3 µg/mL; in the assay with Alcaligenes viscolactis (setting [3]), below 0.46 µg/mL; in the assay with Streptococcus pneumoniae (setting [3]), below 0.46 µg/mL; with Branhamella catarrhalis (setting [3]) it was below 0.46 µg/mL; in the assay with Bacillus cereus (setting [3]), below 0.46 µg/mL.

With `CCN(CC)CCn1nc2c([N+](=O)[O-])cc([N+](=O)[O-])c3c2c1-c1cc(OC)ccc1N3.CS(=O)(=O)O` [Example 56, N,N-Diethyl-9-methoxy-3,5-dinitropyrazolo[3,4,5-kl]acridine-1(6H)-ethanamine, methanesulfonate], the MIC is 1000 µg/mL in the assay with Escherichia coli; below 0.46 µg/mL with Alcaligenes viscolactis; 12.3 µg/mL with Streptococcus pneumoniae; 37 µg/mL in the assay with Branhamella catarrhalis; 333 µg/mL with Bacillus cereus.

On to `CC[N+]([O-])(CC)CCn1nc2c3c(c([N+](=O)[O-])ccc31)Nc1ccccc1-2` [Example 35, N,N-Diethyl-5-nitropyrazolo[3,4,5-kl]acridine-2(6H)-ethanamine, N-oxide, methanesulfonate salt (5:6), hydrate (4:3)], for which the MIC in the assay on Escherichia coli (setting [3]) is 12.3 µg/mL; in the assay with Alcaligenes viscolactis (setting [3]), 4.1 µg/mL; with Streptococcus pneumoniae (setting [3]), 12.3 µg/mL; in the assay on Branhamella catarrhalis (setting [3]), 12.3 µg/mL; with Bacillus cereus (setting [3]), above 1000 µg/mL. The response vs control in vivo at 12.5 mg/kg in assay [1] (setting [5]) stood at 167%.

On to `CCN(CC)CCn1nc2c3c(c([N+](=O)[O-])ccc31)Nc1ccc(OCc3ccccc3)cc1-2` [Example 11, monomethanesulfonate], for which the IC50 with HCT-8 cells (HCT-8 cells, 60 to 65 hours, molar concentration for 50% inhibition of growth, read-out: HCA in vitro ID50 avg.) worked out at 2300 nM. The response vs control in vivo at 12.5 mg/kg in assay [1] (setting [5]) was 127%. Further, the response vs control in vivo at 25 mg/kg in assay [1] (25 mg/kg, intraperitoneally once daily for five days, read-out: P388 in vivo T/C × 100) is 141%. Also, the response vs control in vivo at 50 mg/kg in assay [1] (50 mg/kg, intraperitoneally once daily for five days, read-out: P388 in vivo T/C × 100) stood at 194%.
